ChEMBL document CHEMBL1201862, “PubChem BioAssay data set” (2004)
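Cells were grown in 96-well plates and exposed to each compound for 48 hours at five concentrations; endpoints were interpolated linearly between bracketing concentrations, or set to the highest concentration if not reached. The concentration for 50% growth inhibition is given as GI50.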 The source made the active and inactive calls. Cut-off read from the data, not from the text of the source: active = GI50 up to about 1.1 µM and inactive = higher.

Tests used:
Experiment in all cases: NCI anticancer screen, dose series, 48 h
[1] = system: CCRF-CEM
[2] = system: M14
[3] = system: Malme-3M
[4] = system: SW-620
[5] = system: SR
[6] = system: HCC 2998
[7] = system: OVCAR-5
[8] = system: HCT-15
[9] = system: EKVX
[10] = system: HCT-116
[11] = system: SK-MEL-2
[12] = system: NCI-H522
[13] = system: U-251
[14] = system: SN12C
[15] = system: ACHN
[16] = system: OVCAR-8
[17] = system: TK-10
[18] = system: NCI/ADR-RES
[19] = system: UO-31

Structure (SMILES)	GI50 [1]	GI50 [2]	GI50 [3]	GI50 [4]	GI50 [5]	GI50 [6]	GI50 [7]	GI50 [8] [µM]	GI50 [9]	GI50 [10]	GI50 [11]	GI50 [12]	GI50 [13]	GI50 [14]	GI50 [15]	GI50 [16]	GI50 [17]	GI50 [18]	GI50 [19]
Nc1nc(SCCC/C=C/I)nc2c1ncn2C1OC(COP(=O)(O)O)C(O)C1O (stereo unspecified)	> 100 µM (inactive)	> 100 µM (inactive)	> 100 µM (inactive)	> 100 µM (inactive)	> 100 µM (inactive)	> 100 µM (inactive)	> 100 µM (inactive)	> 100	> 100 µM (inactive)	> 100 µM (inactive)	> 100 µM (inactive)	> 100 µM (inactive)	> 100 µM (inactive)	> 100 µM (inactive)	> 100 µM (inactive)	> 100 µM (inactive)	> 100 µM (inactive)	–	–
CCCCCOc1ccc(/C=N\c2ccc(CCc3ccc(/N=C/c4ccc(OCCCCC)cc4)cc3)cc2)cc1	> 100 µM (inactive)	–	> 100 µM (inactive)	> 100 µM (inactive)	–	> 100 µM (inactive)	> 100 µM (inactive)	> 100	> 100 µM (inactive)	> 100 µM (inactive)	> 100 µM (inactive)	> 100 µM (inactive)	> 100 µM (inactive)	> 100 µM (inactive)	–	> 100 µM (inactive)	–	> 100 µM (inactive)	> 100 µM (inactive)
Cn1c(=O)c2nc(NCCO)cnc2n(C)c1=O	> 100 µM (inactive)	68.2 µM (inactive)	44.7 µM (inactive)	55.6 µM (inactive)	42.8 µM (inactive)	64.6 µM (inactive)	> 100 µM (inactive)	85.9	> 100 µM (inactive)	62.8 µM (inactive)	26.6 µM (inactive)	21.5 µM (inactive)	32.9 µM (inactive)	> 100 µM (inactive)	> 100 µM (inactive)	> 100 µM (inactive)	> 100 µM (inactive)	–	48.9 µM (inactive)
CC1=NOC(=O)/C1=C/c1cccc2ccccc12	> 100 µM (inactive)	> 100 µM (inactive)	> 100 µM (inactive)	54 µM (inactive)	> 100 µM (inactive)	> 100 µM (inactive)	> 100 µM (inactive)	> 100	> 100 µM (inactive)	> 100 µM (inactive)	> 100 µM (inactive)	> 100 µM (inactive)	> 100 µM (inactive)	> 100 µM (inactive)	> 100 µM (inactive)	> 100 µM (inactive)	> 100 µM (inactive)	–	> 100 µM (inactive)
Cn1ccnc1C(c1nccn1C)C(C)(C)[N+](=O)[O-]	> 100 µM (inactive)	> 100 µM (inactive)	–	> 100 µM (inactive)	> 100 µM (inactive)	> 100 µM (inactive)	–	> 100	> 100 µM (inactive)	> 100 µM (inactive)	> 100 µM (inactive)	> 100 µM (inactive)	> 100 µM (inactive)	> 100 µM (inactive)	> 100 µM (inactive)	> 100 µM (inactive)	> 100 µM (inactive)	–	–
C[s+]1c2ccccc2c2ccccc21	> 100 µM (inactive)	> 100 µM (inactive)	> 100 µM (inactive)	> 100 µM (inactive)	92.5 µM (inactive)	> 100 µM (inactive)	> 100 µM (inactive)	92	> 100 µM (inactive)	> 100 µM (inactive)	> 100 µM (inactive)	> 100 µM (inactive)	> 100 µM (inactive)	> 100 µM (inactive)	> 100 µM (inactive)	> 100 µM (inactive)	> 100 µM (inactive)	–	34.2 µM (inactive)
O=C1OCC/C1=N/O	> 100 µM (inactive)	> 100 µM (inactive)	> 100 µM (inactive)	> 100 µM (inactive)	> 100 µM (inactive)	> 100 µM (inactive)	> 100 µM (inactive)	> 100	> 100 µM (inactive)	> 100 µM (inactive)	> 100 µM (inactive)	> 100 µM (inactive)	> 100 µM (inactive)	> 100 µM (inactive)	> 100 µM (inactive)	> 100 µM (inactive)	> 100 µM (inactive)	–	> 100 µM (inactive)
COc1ccc(/C=C(\NC(=O)c2ccccc2)c2nc3ccccc3[nH]2)cc1OC	85.9 µM (inactive)	> 100 µM (inactive)	> 100 µM (inactive)	> 100 µM (inactive)	> 100 µM (inactive)	> 100 µM (inactive)	> 100 µM (inactive)	> 100	> 100 µM (inactive)	> 100 µM (inactive)	> 100 µM (inactive)	> 100 µM (inactive)	> 100 µM (inactive)	> 100 µM (inactive)	> 100 µM (inactive)	> 100 µM (inactive)	> 100 µM (inactive)	–	99.3 µM (inactive)
CC1(C)O[C@@H](CCl)C[C@H](C#N)O1	> 100 µM (inactive)	> 100 µM (inactive)	> 100 µM (inactive)	> 100 µM (inactive)	> 100 µM (inactive)	> 100 µM (inactive)	> 100 µM (inactive)	> 100	> 100 µM (inactive)	> 100 µM (inactive)	> 100 µM (inactive)	> 100 µM (inactive)	> 100 µM (inactive)	> 100 µM (inactive)	> 100 µM (inactive)	> 100 µM (inactive)	> 100 µM (inactive)	–	> 100 µM (inactive)
Cn1ncc2c(Nc3ccc(Cl)cc3)c3ccccc3nc21	17.9 µM (inactive)	14.8 µM (inactive)	20.2 µM (inactive)	16.6 µM (inactive)	14.9 µM (inactive)	22.9 µM (inactive)	23.2 µM (inactive)	15.7	> 10 µM (inactive)	12.2 µM (inactive)	18.4 µM (inactive)	19.4 µM (inactive)	15.6 µM (inactive)	16 µM (inactive)	17 µM (inactive)	14.8 µM (inactive)	21.4 µM (inactive)	–	> 10 µM (inactive)
COC(=O)/C(C#N)=C1\NC(=O)c2ccccc21	> 100 µM (inactive)	> 100 µM (inactive)	> 100 µM (inactive)	> 100 µM (inactive)	> 100 µM (inactive)	> 100 µM (inactive)	> 100 µM (inactive)	> 100	> 100 µM (inactive)	> 100 µM (inactive)	–	> 100 µM (inactive)	> 100 µM (inactive)	> 100 µM (inactive)	> 100 µM (inactive)	> 100 µM (inactive)	> 100 µM (inactive)	–	> 100 µM (inactive)
CCOC(=O)CC(NC(=O)c1nc[nH]c1/N=N/N(C)C)C(=O)OCC (stereo unspecified)	> 100 µM (inactive)	> 100 µM (inactive)	> 100 µM (inactive)	> 100 µM (inactive)	> 100 µM (inactive)	> 100 µM (inactive)	> 100 µM (inactive)	> 100	> 100 µM (inactive)	> 100 µM (inactive)	> 100 µM (inactive)	> 100 µM (inactive)	> 100 µM (inactive)	> 100 µM (inactive)	> 100 µM (inactive)	> 100 µM (inactive)	> 100 µM (inactive)	–	> 100 µM (inactive)
Cc1ccc(-c2nnc(SCC(=O)O)[nH]2)cc1	> 100 µM (inactive)	> 100 µM (inactive)	> 100 µM (inactive)	> 100 µM (inactive)	> 100 µM (inactive)	> 100 µM (inactive)	> 100 µM (inactive)	> 100	> 100 µM (inactive)	> 100 µM (inactive)	> 100 µM (inactive)	> 100 µM (inactive)	> 100 µM (inactive)	> 100 µM (inactive)	> 100 µM (inactive)	> 100 µM (inactive)	> 100 µM (inactive)	–	> 100 µM (inactive)
CC[C@H](C)N(CCN)C(=O)c1cc2ccccc2c(-c2ccccc2Cl)n1	3.3 µM (inactive)	17.8 µM (inactive)	–	14.9 µM (inactive)	10.8 µM (inactive)	2.72 µM (inactive)	14.7 µM (inactive)	4.42	11.5 µM (inactive)	2.85 µM (inactive)	18.8 µM (inactive)	17.5 µM (inactive)	11.6 µM (inactive)	18.2 µM (inactive)	14.9 µM (inactive)	14.2 µM (inactive)	12.1 µM (inactive)	–	12.7 µM (inactive)
CC(O[Si](c1ccccc1)(c1ccccc1)C(C)(C)C)[C@H](NC(=O)OC(C)(C)C)C(=O)O (stereo partly specified)	10.2 µM (inactive)	38.3 µM (inactive)	50 µM (inactive)	29.4 µM (inactive)	28.2 µM (inactive)	36.2 µM (inactive)	75.3 µM (inactive)	29	33.5 µM (inactive)	34.2 µM (inactive)	–	–	33.1 µM (inactive)	–	30.8 µM (inactive)	42 µM (inactive)	45 µM (inactive)	46.7 µM (inactive)	33.9 µM (inactive)
Clc1cccc(Cl)c1C1SCc2nc3ccccc3n21 (stereo unspecified)	54.5 µM (inactive)	> 100 µM (inactive)	> 100 µM (inactive)	46.7 µM (inactive)	5.38 µM (inactive)	> 100 µM (inactive)	> 100 µM (inactive)	24.9	78.3 µM (inactive)	9.23 µM (inactive)	–	> 100 µM (inactive)	> 100 µM (inactive)	> 100 µM (inactive)	> 100 µM (inactive)	> 100 µM (inactive)	> 100 µM (inactive)	–	> 100 µM (inactive)
